Experimental data reported in US11053213B2, “Pharmaceutical compounds” (ALMAC DISCOVERY LIMITED, priority 2016, dated 2021).

target: USP19 (Homo sapiens (Human), UniProt O94966); assay: USP19 activity assay (fluorescence polarisation, Ubiquitin-Lys-TAMRA substrate); format: biochemical; settings: full-length USP19 2.5 nM, 30 min pre-incubation, Ub substrate 500 nM; average of at least two duplicate experiments
Experimental: Unless otherwise stated, all other reagents were purchased from Sigma. Enzymatic reactions were conducted in black flat bottom polystyrene 384-well plates (Nunc) and 30 μL total volume. […] Inhibitors were stored as 10 mM DMSO stocks in an inert environment (low humidity, dark, low oxygen, room temperature) using the Storage Pod System and serial dilutions were prepared in buffer just prior to the assay (from 200 μM to 2 pM, 8-18 data point curve). Following incubation at RT for 30 min, the enzymatic reactions were initiated by dispensing the Ub substrate (500 nM, 10 μL). FP was measured every 15 min over a period of 90 min (within the linear range of the assay) using a Synergy 4 plate reader (BioTek) exciting at 530 nm and measuring the amount of parallel and perpendicular light at 575 nm. The FP signal was subsequently normalised to the no compound control.

Sequence of USP19 (O94966 whole entry): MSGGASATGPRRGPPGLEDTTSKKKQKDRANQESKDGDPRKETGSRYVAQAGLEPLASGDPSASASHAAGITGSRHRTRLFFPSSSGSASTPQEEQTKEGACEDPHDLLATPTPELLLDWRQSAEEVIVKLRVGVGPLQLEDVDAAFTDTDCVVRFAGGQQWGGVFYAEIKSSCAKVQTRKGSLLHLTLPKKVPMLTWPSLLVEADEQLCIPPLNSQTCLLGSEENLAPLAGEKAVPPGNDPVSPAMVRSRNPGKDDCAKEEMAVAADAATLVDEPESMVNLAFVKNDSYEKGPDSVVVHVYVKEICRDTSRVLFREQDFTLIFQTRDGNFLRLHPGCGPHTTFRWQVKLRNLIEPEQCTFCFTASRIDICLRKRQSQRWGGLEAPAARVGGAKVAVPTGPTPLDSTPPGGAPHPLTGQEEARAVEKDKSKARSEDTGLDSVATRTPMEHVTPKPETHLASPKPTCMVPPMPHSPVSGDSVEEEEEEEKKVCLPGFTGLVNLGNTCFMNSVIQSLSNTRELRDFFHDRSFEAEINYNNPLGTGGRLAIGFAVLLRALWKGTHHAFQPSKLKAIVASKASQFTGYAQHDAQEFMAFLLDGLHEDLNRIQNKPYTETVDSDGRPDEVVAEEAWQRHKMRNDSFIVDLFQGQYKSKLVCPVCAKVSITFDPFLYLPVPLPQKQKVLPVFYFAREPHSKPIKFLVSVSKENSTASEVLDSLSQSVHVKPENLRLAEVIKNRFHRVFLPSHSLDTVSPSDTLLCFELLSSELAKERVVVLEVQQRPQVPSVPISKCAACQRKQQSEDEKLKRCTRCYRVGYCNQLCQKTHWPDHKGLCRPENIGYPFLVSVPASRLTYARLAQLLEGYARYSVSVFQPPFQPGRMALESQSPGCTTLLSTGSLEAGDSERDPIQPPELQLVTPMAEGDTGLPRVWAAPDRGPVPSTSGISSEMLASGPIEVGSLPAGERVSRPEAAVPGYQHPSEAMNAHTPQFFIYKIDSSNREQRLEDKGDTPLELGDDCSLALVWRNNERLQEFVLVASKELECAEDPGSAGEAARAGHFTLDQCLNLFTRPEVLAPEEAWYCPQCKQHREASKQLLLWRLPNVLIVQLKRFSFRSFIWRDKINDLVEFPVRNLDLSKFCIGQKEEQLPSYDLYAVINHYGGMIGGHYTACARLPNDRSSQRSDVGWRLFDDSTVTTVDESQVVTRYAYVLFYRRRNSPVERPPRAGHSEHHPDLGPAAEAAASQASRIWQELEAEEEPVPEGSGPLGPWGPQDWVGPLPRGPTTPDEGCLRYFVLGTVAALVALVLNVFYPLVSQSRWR

| SMILES | IC50 [µM] |
| --- | --- |
| C[C@H](CC1CCCCC1)C(=O)N1CCC(O)(Cn2cc(-c3cccc(CN)c3)c(-c3ccccc3F)cc2=O)CC1 [Example 52, (R)-5-(3-(Aminomethyl)phenyl)-1-((1-(3-cyclohexyl-2-methylpropanoyl)-4-hydroxypiperidin-4-yl)methyl)-4-(2-fluorophenyl)pyridin-2(1H)-one] | 0.5 to 5 |
| C[C@H](CC(=O)N1CCC(O)(Cn2cnc(Oc3ccc(F)cc3)cc2=O)CC1)c1ccccc1 [Example 54] | 50 to 250 |
| C[C@H](CC(=O)N1CCC(O)(Cn2cc(N3CCCC3=O)c(-c3ccccc3)cc2=O)CC1)c1ccccc1 [Example 55, (R)-1-((4-Hydroxy-1-(3-phenylbutanoyl)piperidin-4-yl)methyl)-5-(2-oxopyrrolidin-1-yl)-4-phenylpyridin-2(1H)-one] | 5 to 50 |
| C=C1CCC(C)(C(=O)N2CCC(O)(Cn3cnc(-c4ccccc4F)cc3=O)CC2)CC1 [Example 56, 6-(2-Fluorophenyl)-3-((4-hydroxy-1-(1-methyl-4-methylenecyclohexanecarbonyl)piperidin-4-yl)methyl)pyrimidin-4(3H)-one] | 5 to 50 |
| CC(C)(CC1CCC1)C(=O)N1CCC(O)(Cn2cnc(-c3ccccc3F)cc2=O)CC1 [Example 59, 3-((1-(3-Cyclobutyl-2,2-dimethylpropanoyl)-4-hydroxypiperidin-4-yl)methyl)-6-(2-fluorophenyl)pyrimidin-4(3H)-one] | 5 to 50 |
| C[C@H](CC(=O)N1C[C@H]2CC[C@@H](C1)C2(O)Cn1cnc(-c2ccccc2F)cc1=O)c1ccccc1 (some centres unmarked) [Example 60] | 5 to 50 |
| C[C@H](CC(=O)N1CCC(O)(Cn2cc(C(=O)N3CCC(O)CC3)c(-c3ccccc3)cc2=O)CC1)c1ccccc1 [Example 62, (R)-1-((4-Hydroxy-1-(3-phenylbutanoyl)piperidin-4-yl)methyl)-5-(4-hydroxypiperidine-1-carbonyl)-4-phenylpyridin-2(1H)-one] | 0.5 to 5 |
| C[C@H](CC(=O)N1CCC(O)(Cn2cc(C(=O)N3CCCC3)c(-c3ccccc3)cc2=O)CC1)c1ccccc1 [Example 63, (R)-1-((4-Hydroxy-1-(3-phenylbutanoyl)piperidin-4-yl)methyl)-4-phenyl-5-(pyrrolidine-1-carbonyl)pyridin-2(1H)-one] | 0.5 to 5 |
| C[C@H](CC(=O)N1CCC(O)(Cn2cc(C(=O)N3CCC4(CC3)OCCO4)c(-c3ccccc3)cc2=O)CC1)c1ccccc1 [Example 64, (R)-1-((4-Hydroxy-1-(3-phenylbutanoyl)piperidin-4-yl)methyl)-4-phenyl-5-(1,4-dioxa-8-azaspiro[4.5]decane-8-carbonyl)pyridin-2(1H)-one] | 5 to 50 |
| C[C@H](CC(=O)N1CCC(O)(Cn2cc(C(=O)NC3CCCCC3)c(-c3ccccc3)cc2=O)CC1)c1ccccc1 [Example 65, (R)—N-Cyclohexyl-1-((4-hydroxy-1-(3-phenylbutanoyl)piperidin-4-yl)methyl)-6-oxo-4-phenyl-1,6-dihydropyridine-3-carboxamide] | 5 to 50 |
| CC(C)N(C)C(=O)c1cn(CC2(O)CCN(C(=O)C[C@@H](c3ccccc3)C(F)F)CC2)c(=O)cc1-c1ccccc1 [Example 71, (S)-1-((1-(4,4-Difluoro-3-phenylbutanoyl)-4-hydroxypiperidin-4-yl)methyl)-N-isopropyl-N-methyl-6-oxo-4-phenyl-1,6-dihydropyridine-3-carboxamide] | 5 to 50 |
| CC(C)N(C)C(=O)c1cn(CC2(O)CCN(C(=O)C3(c4cccs4)CC3)CC2)c(=O)cc1-c1ccccc1 [Example 72, 1-((4-Hydroxy-1-(1-(thiophen-2-yl)cyclopropane-1-carbonyl)piperidin-4-yl)methyl)-N-isopropyl-N-methyl-6-oxo-4-phenyl-1,6-dihydropyridine-3-carboxamide] | 50 to 250 |
| C[C@H](CC(=O)N1CCC(O)(Cn2cnc(-c3ccccc3CO)cc2=O)CC1)c1ccccc1 [Example 74, (R)-3-((4-Hydroxy-1-(3-phenylbutanoyl)piperidin-4-yl)methyl)-6-(2-(hydroxymethyl)phenyl)pyrimidin-4(3H)-one] | 50 to 250 |
| CCN(CC)C(=O)c1cn(CC2(O)CCN(C(=O)C[C@@H](C)c3ccccc3)CC2)c(=O)cc1-c1ccccc1 [Example 75, (R)—N,N-Diethyl-1-((4-hydroxy-1-(3-phenylbutanoyl)piperidin-4-yl)methyl)-6-oxo-4-phenyl-1,6-dihydropyridine-3-carboxamide] | 0.5 to 5 |
| CC(CC(=O)N1CCC(O)(Cn2cnc(-c3ccccc3F)cc2=O)C(C)(C)C1)C1CCCCC1 (centres unmarked) [Example 76, 3-((1-(3-Cyclohexylbutanoyl)-4-hydroxy-3,3-dimethylpiperidin-4-yl)methyl)-6-(2-fluorophenyl)pyrimidin-4(3H)-one] | 0.5 to 5 |
| C[C@H](CC(=O)N1CCC(O)(Cn2cc(C(=O)N3CCOCC3)c(-c3ccccc3)cc2=O)CC1)c1ccccc1 [Example 77, (R)-1-((4-Hydroxy-1-(3-phenylbutanoyl)piperidin-4-yl)methyl)-5-(morpholine-4-carbonyl)-4-phenylpyridin-2(1H)-one] | 0.5 to 5 |
| O=C(CCc1ccc(F)cc1)N1CCC(O)(Cn2cnc(-c3ccccc3F)cc2=O)CC1 [Example 82, 6-(2-Fluorophenyl)-3-((1-(3-(4-fluorophenyl)propanoyl)-4-hydroxypiperidin-4-yl)methyl)pyrimidin-4(3H)-one] | 50 to 250 |
| CCC(C)(C)C(=O)N1CCC(O)(Cn2cc(C(=O)N(C)C(C)C)c(-c3ccccc3)cc2=O)CC1 [Example 84, 1-((1-(2,2-Dimethylbutanoyl)-4-hydroxypiperidin-4-yl)methyl)-N-isopropyl-N-methyl-6-oxo-4-phenyl-1,6-dihydropyridine-3-carboxamide] | 50 to 250 |
| CC(=O)Nc1ccccc1-c1cc(=O)n(CC2(O)CCN(C(=O)C[C@@H](C)c3ccccc3)CC2)cn1 [Example 85, (R)—N-(2-(1-((4-Hydroxy-1-(3-phenylbutanoyl)piperidin-4-yl)methyl)-6-oxo-1,6-dihydropyrimidin-4-yl)phenyl)acetamide] | 50 to 250 |
| C[C@H](CC(=O)N1CCC(O)(Cn2cc(-c3ccc(CN)cc3)c(-c3ccccc3)cc2=O)CC1)c1ccccc1 [Example 86, (R)-5-(4-(Aminomethyl)phenyl)-1-((4-hydroxy-1-(3-phenylbutanoyl)piperidin-4-yl)methyl)-4-phenylpyridin-2(1H)-one] | 5 to 50 |
| CC(C)N(C)C(=O)c1cn(CC2(O)CCN(C(=O)[C@H](C)CC3CCCCC3)CC2)c(=O)cc1-c1ccccc1 [Example 87, (R)-1-((1-(3-Cyclohexyl-2-methylpropanoyl)-4-hydroxypiperidin-4-yl)methyl)-N-isopropyl-N-methyl-6-oxo-4-phenyl-1,6-dihydropyridine-3-carboxamide] | 0.5 to 5 |
| C[C@H](CC(=O)N1CCC(O)(Cn2cc(C(=O)N3CCCCC3)c(-c3ccccc3)cc2=O)CC1)c1ccccc1 [Example 88, (R)-1-((4-Hydroxy-1-(3-phenylbutanoyl)piperidin-4-yl)methyl)-4-phenyl-5-(piperidine-1-carbonyl)pyridin-2(1H)-one] | 0.5 to 5 |
| COc1ccccc1-c1cc(=O)n(CC2(O)CCN(C(=O)C[C@@H](C)c3ccccc3)CC2)cc1C(=O)N(C)C(C)C [Example 89, (R)-1-((4-Hydroxy-1-(3-phenylbutanoyl)piperidin-4-yl)methyl)-N-isopropyl-4-(2-methoxyphenyl)-N-methyl-6-oxo-1,6-dihydropyridine-3-carboxamide] | 0.5 to 5 |
| CC(C)N(C)C(=O)c1cn(CC2(O)CCN(C(=O)C[C@@H](C)c3ccccc3)CC2)c(=O)cc1-c1ccccc1F [Example 90, (R)-4-(2-Fluorophenyl)-1-((4-hydroxy-1-(3-phenylbutanoyl)piperidin-4-yl)methyl)-N-isopropyl-N-methyl-6-oxo-1,6-dihydropyridine-3-carboxamide] | 0.5 to 5 |
| C[C@H](CC(=O)N1CCC(O)(Cn2cc(-c3ccccn3)c(-c3ccccc3)cc2=O)CC1)c1ccccc1 [Example 91, (R)-1′-((4-Hydroxy-1-(3-phenylbutanoyl)piperidin-4-yl)methyl)-4′-phenyl-[2,3′-bipyridin]-6′(1′H)-one] | 0.5 to 5 |
| CC(C)N(C)C(=O)c1cn(CC2(O)CCN(C(=O)CCC3CCCCC3)CC2)c(=O)cc1-c1ccccc1 [Example 92, 1-((1-(3-Cyclohexylpropanoyl)-4-hydroxypiperidin-4-yl)methyl)-N-isopropyl-N-methyl-6-oxo-4-phenyl-1,6-dihydropyridine-3-carboxamide] | 0.5 to 5 |
| C[C@H](CC(=O)N1CCC(O)(Cn2cc(C(=O)N3CCN(C(=O)OC(C)(C)C)CC3)c(-c3ccccc3)cc2=O)CC1)c1ccccc1 [Example 93, (R)-tert-Butyl 4-(1-((4-hydroxy-1-(3-phenylbutanoyl)piperidin-4-yl)methyl)-6-oxo-4-phenyl-1,6-dihydropyridine-3-carbonyl)piperazine-1-carboxylate] | 5 to 50 |
| C[C@H](CC(=O)N1CCC(O)(Cn2cc(C(=O)N3CCNCC3)c(-c3ccccc3)cc2=O)CC1)c1ccccc1 [Example 94, (R)-1-((4-Hydroxy-1-(3-phenylbutanoyl)piperidin-4-yl)methyl)-4-phenyl-5-(piperazine-1-carbonyl)pyridin-2(1H)-one] | 0.5 to 5 |
| C[C@H](CC(=O)N1CCC(O)(Cn2cc(C(=O)N(C)C)c(-c3ccccc3)cc2=O)CC1)c1ccccc1 [Example 95, (R)-1-((4-Hydroxy-1-(3-phenylbutanoyl)piperidin-4-yl)methyl)-N,N-dimethyl-6-oxo-4-phenyl-1,6-dihydropyridine-3-carboxamide] | 5 to 50 |
